Source: patent US20190225941A1, “MODULATION OF FUNCTION OF IMMUNE EFFECTOR CELLS” (OSLO UNIVERSITETSSYKEHUS HF, priority 2016, published 2019)
Entries after “also recorded” stand apart in the source; their conditions may differ. Peptide text beside a SMILES is read from it. * marks the point of attachment. βNA = c1ccc2cc(N*)ccc2c1

What was measured:
[1] = test system: NK cells; assay: Degranulation (CD107a) and intracellular IFN-γ functional assay, NK cells stimulated with K562 target cells; type: cell-based, human; conditions: for IFN-γ response to K562 cells / degranulation (CD107a) in response to K562 cells: 5 h, 1:1 ratio, GPN 50 μM, mefloquine 10 μM, siramesine 10 μM, vacuolin-1 10 μM
Protocol: (§1) Functional assays were performed at 37° C. in complete medium (RPMI+10% FCS) for the times indicated. Purified NK cells were incubated with K562 target cells for 5 hours at a ratio of 1:1 in the presence of anti-CD107a-FITC (biolegend) for degranulation assays, or with the addition of Brefeldin A (GolgiPlug BD) for degranulation plus intracellular cytokine assays. Treatment with lysosomotropic reagents were performed for the duration of the assay using the following final concentrations; glycyl-L-phenylalanine-β-naphthylamide (GPN, 50 μM), mefloquine (10 μM), siramesine (10 μM), vacuolin-1 (10 μM). Stimulation with PMA (1 μg/mL) and ionomycin (0.5 μM), or with thapsigargin (1 μM) and/or U18666a (2 μg/mL) were performed for the times indicated, and the cells were stained for CD107a surface expression post-stimulation.

[2] = test system: NK cells; assay: Viability of NK cells exposed to lysosomotropic compounds; type: cell-based, human; conditions: at the doses tested, FIG. 15A
[3] = test system: primary NK cells; assay: Phospho-flow cytometry after CD16 ligation; type: cell-based, human; conditions: 1 h pre-treatment, GPN 50 μM or vacuolin-1 10 μM
Protocol: Functional assays for phospho-flow cytometry were performed at 37° C. in complete medium in NK cell suspensions between 5-10 M/mL for 20 min. Cells were pre-treated for 1 h using GPN (50 μM) or vacuolin-1 (10 μM), after which biotinylated CD16 (Biolegend, clone 3G8) was added to final concentrations of 5 μg/mL each. After 1 min, the aliquot for the 0 min (unstimulated) sample was taken out and mixed with Fix Buffer I (BD Biosciences). After one additional minute, the stimulation was started by crosslinking the biotinylated antibodies via 50 μg/mL avidin (Thermo Fischer Scientific) and the aliquots for the 5 min, 10 min and 20 min samples were transferred into Fix Buffer I (BD bioscience) at the corresponding time points. Cells were fixed at 37° C. for 10 min, washed and re-suspended in PBS. To allow combination of the differently stimulated samples into one, two dimensional fluorescent cell barcoding (FCB) was utilized. Samples were stained in distinct concentrations of amine-reactive pacific blue succinimidyl ester (Thermo Fisher Scientific) for the time points (0 min-0.69 ng/mL, 5 min-6.25 ng/mL, 10 min-25 ng/mL and 20 min-100 ng/mL) in combination with amine-reactive pacific orange succinimidyl ester (Thermo Fisher Scientific) for the different stimulations (control—10 ng/mL, GPN—100 ng/mL and vacuolin-1-500 ng/mL). After 20 min at RT, samples were washed twice in wash solution (PBS supplemented with 1% FCS and 0.09% sodium azide), combined, permeabilized (Perm Buffer III, BD Biosciences) and stored at −80° C. For thawing, samples were incubated 20 min on ice. Then, they were washed in wash solution and stained with Alexa Fluor 647-conjugated phospho epitope-specific antibodies against ZAP70/syk (pY319/pY352), Lck (pY505), Erk1/2 (pT202/pY204) (BD Bioscience), NF-κB p65 (pS536) (Cell Signaling Technologies) or isotype control IgG1K (BD Biosciences) for 30 min at RT. After washing data was acquired on an LSR Fortessa (BD Biosciences) and analysed in with FlowJo v10.0.8 (TreeStar).

[4] = test system: NK cells; assay: CD107a mobilization after PMA/Ionomycin stimulation; type: cell-based, human; conditions: indicated doses of GPN, FIG. 14D-E
Protocol: as §1

[5] = test system: NK cells; conditions: positive control, known property; cited from earlier work
[6] = test system: NK cells; assay: Granzyme B expression by flow cytometry after IL-15 or IL-21 stimulation with or without signalling inhibitors; type: cell-based, human
Excerpt: Isolated PBMC were stained for flow cytometric analysis using an appropriate combination of the following antibodies, followed by the name of the clone in brackets: CD14-V500 (M5E2), CD19-V500 (HIB19), CD3-V500 (UCHT1), CD56 ECD (N901) CD57-PB (HCD57), CD57 purified (TB01), anti-mouse-IgM-EF650 (II/41), NKG2A-PE, APC or APC.AF750 (Z199), CD16-BV785 (3G8), KIR2DL3-FITC, KIR2DL1-APC or APC-Vio770 (REA284), KIR3DL1-AF700 or BV421 (D×9), KIR2DS4-QD585 (1847), KIR3DL2-biotin (D×31), KIR2DL2/L3/S2-PE.Cy5.5 (GL183), KIR2DL1/S1-PE.Cy7 (EB6) or PE-Vio770 (11 PB6). Dead cells were labelled using live/dead aqua (Life technologies). Biotin-conjugated antibodies were visualized using streptavidin-Qdot 585 or 605 (Life technologies). After surface staining, cells were fixed and permeabilized using a fixation/permeabilization kit (BD Bioscience Cytofix/Cytoperm) prior to intracellular staining with anti-granzyme B-A700 (GB11). Samples were acquired using an LSRII flow cytometer (Becton Dickinson) and data was analysed using FlowJo V10.0.8 (TreeStar).

[7] = test system: primary NK cells; assay: Confocal imaging of primary NK cells exposed to PIKfyve inhibitors (LAMP-1 / granzyme B staining); type: cell-based, human; conditions: for secretory lysosome size: 1 μM overnight, LAMP-1 staining, FIG. 10
Protocol: Sorted NK cells were prepared for confocal microscopy using fixation/permeabilization (BD Bioscience Cytofix/Cytoperm) prior to intracellular staining with mouse anti-human granzyme B-A647 (GB11), rabbit anti-human pericentrin (Ab4448) followed by Donkey anti-Rabbit IgG Alexa555 and donkey anti-mouse-A568. After staining, the fixed cells were adhered to glass cover slips using Cell Tak (Corning) and mounted using Pro-long Gold Antifade with DAPI. The cells were examined with a Zeiss LSM 710 confocal microscope (Carl Zeiss Microlmaging GmbH) equipped with an Ar-Laser Multiline (458/488/514 nm), a DPSS-561 10 (561 nm), a Laser diode 405-30 CW (405 nm), and a HeNe-laser (633 nm). The objective used was a Zeiss plan-Apochromat 63×NA/1.4 oil DICII. Image processing and analysis were performed with basic software ZEN 2011 (Carl Zeiss Microlmaging GmbH) and Imaris 7.7.2 (Bitplane AG). Confocal z-stacks were deconvolved using Huygens Essential 14.06 (Scientific Volume Imaging b.v.), and visualized with Imaris.
Cells were surface-stained with anti-human HLA-ABC antibody (W6/32, BioLegend) prior to settlement on CelITak-coated slides for 20 minutes, followed by fixation with 4% paraformaldehyde. Intracellular staining was performed by incubation with anti-human LAMP-1 (Ab24170, Abcam) for 4h, followed by donkey anti-rabbit-A488 antibody (abcam) and donkey anti-mouse-A568 antibody (Abcam) and Hoechst33342.
Where indicated, cells were stained with mouse anti-human granzyme B-A647 (GB11) instead of anti-HLA-ABC, followed by donkey anti-mouse-A568.

For `NCC(=O)N[C@@H](Cc1ccccc1)C(=O)Nc1ccc2ccccc2c1` [GPN, glycyl-L-phenylalanine-beta-naphthylamide] (H-Gly-Phe-βNA), the “IFN-γ response to K562 cells” value [1] was “reduced corresponding IFN-γ expression”, the “degranulation (CD107a) in response to K562 cells” value [1] was “abrogate specific degranulation” and the “general cellular toxicity (NK cell viability)” value (from here on “general cellular toxicity”) [2] was “none of these compounds showed any general cellular toxicity”. The “propagation of down-stream signals, in particular NF-κB” value [3] was “decreased”, the “upstream signalling (ZAP70 and Lck phosphorylation) following ligation of CD16” value [3] was “minimal effect” and the “threshold for PMA/I-induced activation in self-specific NK cells” value [4] was “reversed the higher threshold for PMA/I-induced activation”.

For `COC(=O)[C@H](CC(C)C)NC(=O)[C@@H](N)CC(C)C` [LeuLeuOMe, L-Leucyl-L-leucine methyl ester], the “induction of apoptosis in immune cells” value [5] is listed as “known to induce apoptosis in immune cells”.

With `OC(c1cc(C(F)(F)F)nc2c(C(F)(F)F)cccc12)C1CCCCN1` (stereo not shown) [Mefloquine] the “general cellular toxicity” value [2] was “none of these compounds showed any general cellular toxicity”.

In the case of `Fc1ccc(-n2cc(CCCCN3CCC4(CC3)OCc3ccccc34)c3ccccc32)cc1` [Siramesine], the “general cellular toxicity” value [2] is reported as “none of these compounds showed any general cellular toxicity”.

For `CCC(=O)N1CCN(c2ccc(-n3c(=O)ccc4cnc5ccc(-c6cnc7ccccc7c6)cc5c43)cc2C(F)(F)F)CC1` [Torin-1], the “cytokine-induced increase in granzyme B” value ([6]; 24 h IL-15 or IL-21, self- and non-self-specific NK cells) was “reversed the cytokine-induced increase in granzyme B” and the “pre-existing constitutive levels of granzyme B” value ([6]; before cytokine stimulation, FIG. 6) was “did not further reduce”.

For `Cc1cccc(/C=N/Nc2cc(N3CCOCC3)nc(OCCc3ccccn3)n2)c1` [apilimod], the secretory lysosome size [7] was “increase in secretory lysosome size”.

In the case of `Ic1cccc(/C=N/Nc2nc(N3CCOCC3)nc(N(c3ccccc3)c3ccccc3)n2)c1` [vacuolin-1], the “IFN-γ response to K562 cells” value [1] is reported as “enhanced”, the “degranulation (CD107a) in response to K562 cells” value [1] is reported as “enhanced” and the “NK cell function, compound alone” value ([1]; resting NK cells, no target cell stimulation) is reported as “had no effect”. For the same molecule, the “propagation of down-stream signals, in particular NF-κB” value [3] was “increased”, the “upstream signalling (ZAP70 and Lck phosphorylation) following ligation of CD16” value [3] was “minimal effect” and the secretory lysosome size [7] was “increase in secretory lysosome size”. The “clustering of granzyme B within secretory lysosomes” value ([7]; vacuolin-1 treatment, FIG. 11) was “clustering of Granzyme B inside the secretory lysosomes; also recorded: cause granzyme B to cluster within the large secretory lysosomes formed”.

In the case of IL-15: cytokine used to prime NK cells, the “granzyme B response to cytokine priming, CD56bright NK cells” value ([6]; CD56bright NK cells) is reported as “responded to priming by IL-15” and the “granzyme B response to cytokine stimulation, CD56dim NK cells” value [6] is reported as “increases in the level of granzyme B”.

In the case of IL-21: cytokine used to prime NK cells, the “granzyme B response to cytokine stimulation, CD56dim NK cells” value [6] is reported as “increases in the level of granzyme B”.
